From US7071168B2, “Anti-cancer compounds and methods related thereto” (The Regents of the University of Colorado, priority 1998, dated 2006)

Legend:
SCLC strain SHP-77 [1] = test: Inhibition of tumor growth in vivo in nude mice, SCLC strain SHP-77; conditions: for inhibition of growth in vivo of SCLC strain SHP-77: figure legends, nude mice, i.p. daily; for inhibition of growth of the SCLC line SHP-77: dose of 5 mg/kg/day
Description: Representative peptide and non-peptide compounds having high in vitro cytotoxic activity were tested against implanted tumors in vivo. Athymic nude mice were implanted subcutaneously with either single cell suspensions (2 million SCLC cells or 1 million NSCLC cells) or with small fragments (3×3 mm) of tumors minced from previously grown nude mouse heterotransplants. On the seventh day after tumor implantation groups of 5 mice bearing implants were injected intraperitoneally daily with the compounds being tested at 1, 5, or 10 mg/kg/day; control animals were injected with an equal volume of isotonic saline. Tumor size was measured with a caliper three times per week. Tumor volume was calculated by the formula: Volume (cc)=π×(length)×(width)^2/6

[2] = system: bradykinin response of isolated guinea pig ileum; test: Anti-bradykinin activity on isolated guinea pig ileum; conditions: for GPI: pA2 for bradykinin antagonist activity on isolated guinea pig ileum: higher numbers indicate higher potency
Procedure, shortened: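 Terminal ileum segments (25 mm) from overnight-fasted male Hartley guinea pigs, in Krebs' solution gassed with 95% O2/5% CO2 under 1 g tension, equilibrated 1 h. Bradykinin concentration-effect curves constructed without and with test compounds.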

SCLC strain SHP-77 [3] = test: Colorimetric tetrazolium (MTT) assay for cell survival, SCLC strain SHP-77; format: cell-based, human; conditions: for ED50 for cytotoxic activity, SCLC SHP-77: Table 5, included for comparison
Procedure, shortened: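 MTT assay: cells seeded overnight, treated in triplicate across a concentration range for 4 days at 37 °C, 5% CO2. On day 5, MTT was added for 4 h; formazan was dissolved in acidified isopropanol and absorbance read.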

PC-3 = test: Cytotoxicity in vitro (MTT), prostate cancer cell line PC-3; format: cell-based, human
Description: (§1) In general, Anti-bradykinin activity was determined by the classical guinea pig ileum assay and on Chinese hamster ovary (CHO) cells expressing cloned human bradykinin B2 receptors. Anti-tumor activity was determined on cultured human cancer cell lines using the standard tetrazolium (MTT) assay.
(§2) Cell growth and survival were measured by a rapid colorimetric assay based on the tetrazolium salt MTT (3-(4,5-dimethylthiazol-2-yl)-2,5-diphenyl tetrazolium bromide) (Mosmann, J Immunol. Methods 65: 55–63, 1983, with minor modifications). Briefly, 1,000 normal lung fibroblasts or normal epithelial BEAS-2B cells, 1,000 or 5,000 viable non-SCLC cells or 10,000 viable SCLC cells were plated in 100 μL of growth medium in 96-well flat-bottomed microtiter plates. Cells were incubated overnight to allow recovery. Compounds to be tested were added to the cells in triplicate in a range of concentrations and the cells were incubated at 37° C., 5% CO2, with 100% humidity. Control cells were treated in the same way without antagonists. […] Plates were incubated for 4 days, allowing sufficient time for cell replication and compound-induced cell death to occur. On day 5, 25 μL of a 2 mg/mL solution of MTT (Sigma) dissolved in RMPI-1640was added to each well. The plate was incubated for 4 h at 37° C. The supernate was removed and the blue formazan complex was dissolved by adding 100 μL of 0.02 N HCl in 75% isopropanol to all wells. Absorbance was immediately determined using a scanning multiwell plate reader. B9870 caused 50% cell death at a concentration of 0.15 μM under these conditions.

[4] = molecular target: T1, cloned human bradykinin B2 receptors (Homo sapiens, UniProt P30411); test: Anti-bradykinin activity on cloned human B2 receptors (CHO cells, Cytosensor microphysiometer); format: cell-based; conditions: for HUMAN: pA2 for bradykinin antagonist potency on cloned human B2 receptors: higher numbers indicate higher potency
T1 sequence (P30411 1-391): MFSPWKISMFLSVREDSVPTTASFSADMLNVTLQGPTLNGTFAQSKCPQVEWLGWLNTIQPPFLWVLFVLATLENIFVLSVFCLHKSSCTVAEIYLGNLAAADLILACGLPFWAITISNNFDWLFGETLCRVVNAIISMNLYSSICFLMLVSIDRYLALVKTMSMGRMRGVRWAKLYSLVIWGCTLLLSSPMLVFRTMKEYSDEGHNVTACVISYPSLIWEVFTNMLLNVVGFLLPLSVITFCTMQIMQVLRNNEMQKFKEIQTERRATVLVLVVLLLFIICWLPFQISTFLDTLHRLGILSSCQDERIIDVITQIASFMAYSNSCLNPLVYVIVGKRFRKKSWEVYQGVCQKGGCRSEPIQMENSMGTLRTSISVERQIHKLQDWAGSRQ
Description: as §1
Chinese hamster ovary cells containing cloned and expressed human bradykinin B2 receptors were grown in cell cups of the Cytosensor microphysiometer in Ham's F-12 medium supplemented with sodium pyruvate and 10% FBS (Gibco 11765-054). For assay the cells were transferred to Ham's F-12 without bicarbonate or serum (Gibco 21700-075) and placed in the Cytosensor. Concentration-response curves were constructed to bradykinin in the presence or absence of new compounds.

TSU = test: Cytotoxicity in vitro (MTT), prostate cancer cell line TSU; format: cell-based, human
Description: as §1, §2

DU14 = test: Cytotoxicity in vitro (MTT), prostate cancer cell line DU14; format: cell-based, human
Description: as §1, §2

PPC1 = test: Cytotoxicity in vitro (MTT), prostate cancer cell line PPC1; format: cell-based, human
Description: as §1, §2

LNCa = test: Cytotoxicity in vitro (MTT), prostate cancer cell line LNCa; format: cell-based, human
Description: as §1, §2

[5] = isolated guinea pig ileum, pD2 of bradykinin is 7.4
[6] = cloned human B2 receptors, pD2 for bradykinin is 11

Molecule	GPI: pA2 for bradykinin antagonist activity on isolated guinea pig ileum [2, 5]	MTT: ED50 for killing of SCLC strain SHP-77 in vitro (SCLC strain SHP-77 [3]; SCLC strain SHP-77 in vitro) [µM]	HUMAN: pA2 for bradykinin antagonist potency on cloned human B2 receptors ([4]; Table 1)	GPI: pA2 for bradykinin antagonist activity on isolated guinea pig ileum ([2]; Table 1)	MTT: ED50 for killing of SCLC strain SHP-77 in vitro (SCLC strain SHP-77 [3]; Table 1, SHP-77, MTT, 4 days)	other results
DDD-(DArg-Igl-Arg-Matp)2 [M638]	Inact	0.6	–	–	–	inhibition of growth in vivo of SCLC strain SHP-77 (SCLC strain SHP-77 [1]): inhibition of growth
Atmp-Igl-Pac-α-Sbl-Lys-B9430 [M590]	–	–	Inact	7.5	4.5 µM	ED50 for cytotoxic activity, PC-3 (PC-3): 6.3 µM; ED50 for cytotoxic activity, TSU (TSU): 7.0 µM; ED50 for cytotoxic activity, SCLC SHP-77 (SCLC strain SHP-77 [3]): 4.5 µM; ED50 for cytotoxic activity, DU14 (DU14): 0.01 µM; ED50 for cytotoxic activity, PPC1 (PPC1): 12 µM; ED50 for cytotoxic activity, LNCa (LNCa): 7.0 µM
DDD-(DArg-F5F-Arg)2 [M822]	–	–	–	Mixed	25 µM	inhibition of growth in vivo of SCLC strain SHP-77 (SCLC strain SHP-77 [1]): inhibition of growth
SUIM-(DArg-Arg-Pro-Hyp-Gly-Igl-Ser-DIgl-Oic-Arg) [B9870-2, reference compound]	–	–	–	8.4	0.15 µM	ED50 for cytotoxic activity, PC-3 (PC-3): 3.2 µM; inhibition of growth of the SCLC line SHP-77 (SCLC strain SHP-77 [1]): marked inhibition of growth; ED50 for cytotoxic activity, TSU (TSU): 6.5 µM; EC50 (SCLC strain SHP-77 [3]; MTT assay, text of Example XIX, read-out: concentration causing 50% cell death): 0.15 µM; ED50 for cytotoxic activity, SCLC SHP-77 (SCLC strain SHP-77 [3]): 0.15 µM; ED50 for cytotoxic activity, DU14 (DU14): 0.08 µM; ED50 for cytotoxic activity, PPC1 (PPC1): 4.3 µM; ED50 for cytotoxic activity, LNCa (LNCa): 3.7 µM
DDD-(Lys-DArg-Arg-Pro-Hyp-Gly-Igl-Ser-DIgl-Oic-Arg)2 [B10054]	–	–	–	7.1	0.3 µM	inhibition of growth of the SCLC line SHP-77 (SCLC strain SHP-77 [1]): marked inhibition of growth; inhibition of growth in vivo of SCLC strain SHP-77 (SCLC strain SHP-77 [1]): inhibition of growth
CC1(C)CC(NC(=O)[C@H](Cc2ccc(OCc3c(Cl)cccc3Cl)cc2)NC(=O)/C=C/c2c(F)c(F)c(F)c(F)c2F)CC(C)(C)N1 [M570, F5c-OC2Y-Atmp]	5.6	1.8	–	–	–	ED50 for cytotoxic activity, PC-3 (PC-3): 1.6 µM; inhibition of growth in vivo of SCLC strain SHP-77 (SCLC strain SHP-77 [1]): inhibition of growth; ED50 for cytotoxic activity, TSU (TSU): 2.8 µM; ED50 for cytotoxic activity, SCLC SHP-77 (SCLC strain SHP-77 [3]): 1.8 µM; ED50 for cytotoxic activity, DU14 (DU14): 1.2 µM; ED50 for cytotoxic activity, PPC1 (PPC1): 3.0 µM; ED50 for cytotoxic activity, LNCa (LNCa): 3.0 µM
CC1(C)CC(NC(=O)C(Cc2csc3ccccc23)NC(=O)C=Cc2c(F)c(F)c(F)c(F)c2F)CC(C)(C)N1 (stereo not shown) [M418]	7.0	3.8	–	–	–	HUMAN: pA2 for bradykinin antagonist potency on cloned human B2 receptors [4, 6]: 10.3
DDD-(pABz-2Nal-Arg-NH2)2 [M500]	–	–	11.4	0	40 µM	–
DDD-(Pac-2Nal-Arg-NH2)2 [M498]	–	–	Inact	4.9	24 µM	–
F5c-OBT-Arg [M550]	–	–	Ag	Inact	80 µM	–
α-DDD-(Lys-B9430-OMe)2 [M600]	–	–	Ag	6.4	1.2 µM	–
CN1CCN(NC(=O)C(Cc2ccc3ccccc3c2)NC(=O)C=Cc2ccc(N(C)C)cc2)CC1 (stereo not shown) [M472]	5.3	25	–	–	–	HUMAN: pA2 for bradykinin antagonist potency on cloned human B2 receptors [4, 6]: Inact
CC1(C)CC(NC(=O)C(Cc2cccnc2)NC(=O)C=Cc2c(F)c(F)c(F)c(F)c2F)CC(C)(C)N1 (stereo not shown) [M438]	4.8	26	–	–	–	HUMAN: pA2 for bradykinin antagonist potency on cloned human B2 receptors [4, 6]: 10
F5c-OC2Y-Arg [M512]	–	–	11	5.7	70 µM	–
CN1CCN(NC(=O)C(Cc2ccc3ccccc3c2)NC(=O)c2cccc(NC(=O)C=Cc3c(F)c(F)c(F)c(F)c3F)c2)CC1 (stereo not shown) [M492]	5.1	45	–	–	–	HUMAN: pA2 for bradykinin antagonist potency on cloned human B2 receptors [4, 6]: Inact
F5c-OBS-Arg [M520]	–	–	7	6.1	Inact	–
DDD-(Pac-2Nal-Arg)2 [M484]	–	–	Inact	Inact	25 µM	–
CC1(C)CC(NC(=O)[C@H](Cc2csc3ccccc23)NC(=O)CCCCCCCCCCC(=O)N[C@@H](Cc2csc3ccccc23)C(=O)NC2CC(C)(C)NC(C)(C)C2)CC(C)(C)N1 [M430]	5.3	18	–	–	–	HUMAN: pA2 for bradykinin antagonist potency on cloned human B2 receptors [4, 6]: 11.3
F5c-hPhe-Arg [M420]	–	–	10.9	7.0	60 µM	–
CN(C(=O)C=Cc1c(F)c(F)c(F)c(F)c1F)C(Cc1ccc(OCc2c(Cl)cccc2Cl)cc1)C(=O)NC1CC(C)(C)NC(C)(C)C1 (stereo not shown) [M594]	5.0	3.7	–	–	–	HUMAN: pA2 for bradykinin antagonist potency on cloned human B2 receptors [4, 6]: 8
DArg-Arg-Pro-Hyp-Gly-Igl-Ser-DIgl-Oic-Arg [B9430, reference compound]	–	–	–	8.2	120 µM	inhibition of growth in vivo of SCLC strain SHP-77 (SCLC strain SHP-77 [1]): inhibition of growth; pA2 (antagonist) on cloned human B2 receptors ([4]; text of Example XVIII): 10.5; pA2 (antagonist) on guinea pig ileum ([2]; text of Example XVII): 7.9
F5c-2Nal-Arg [M446]	–	–	9	4.7	60 µM	–
DDD-(pABz-2Nal-Arg)2 [M400]	–	–	11.5	5.1	22 µM	–
DDD-(Arg-DIgl-Oic-Arg)2 [M226]	–	–	Inact	5.7	35 µM	–
DDD-(Lys-Pac-Gly-mABz-2Nal-NH2)2 [M494]	–	–	Inact	5.1	33 µM	–
